Data on four compounds can be found in paper PMC8591741 (ACS Medicinal Chemistry Letters, 2021).

Test [1] deals with HCV gt1b replicon. Put plainly: HCV replicon assay, gt1b. The conditions noted are these: for potency against gt1b compared with daclatasvir (1), in words: vs 1. In kind it is cell-based, hepatitis C virus.
For test [2], the system named is HCV gt1a replicon. The test can be described thus: HCV replicon assay, gt1a. In kind it is cell-based, hepatitis C virus.

Molecules are shown by their SMILES. Entries after “also recorded” stand apart in the source; their conditions may differ.

In the case of `COC(=O)N[C@H]1CCC[C@H]2CC[C@@H](c3ncc(-c4ccc(-c5ccc(-c6cnc([C@@H]7CCCN7C(=O)[C@@H](NC(=O)OC)C(C)C)[nH]6)cc5)cc4)[nH]3)N2C1=O` [Compound 2], in test [1], the “potency against gt1b compared with daclatasvir (1), in words” value is “decreased slightly”. The “potency decrease against gt1a compared with daclatasvir (1)” value in test [2] (vs 1) is on record as about 221 fold.

On to `COC(=O)N[C@H](C(=O)N1CCC[C@H]1c1ncc(-c2ccc(-c3ccc(-c4cnc([C@@H]5CC[C@H]6CCC[C@@H](NC(=O)OC)C(=O)N65)[nH]4)cc3)cc2)[nH]1)C(C)C` [Compound 4], for which the “gt1b potency regained compared with 2” value in test [1] (vs 2) was about 2 fold. In addition, the “gt1a potency regained compared with 2” value in test [2] (vs 2) is about 27 fold.

On to `COC(=O)N[C@H]1CCC[C@@H]2CC[C@@H](c3ncc(-c4ccc(-c5ccc(-c6cnc([C@@H]7CCCN7C(=O)[C@@H](NC(=O)OC)C(C)C)[nH]6)cc5)cc4)[nH]3)N2C1=O` [Compound 5], for which, in test [1], the “potency against gt1b compared with daclatasvir (1), in words” value is listed as “nearly equipotent; also recorded: essentially equipotent”. Also, in test [2] (vs daclatasvir (1)), the “times less potent against gt1a than 1” value is reported as about 6.

Consider `COC(=O)N[C@H](C(=O)N1CC2(C[C@H]1c1ncc(-c3ccc(-c4ccc(-c5cnc([C@@H]6CC[C@H]7CCC[C@H](N(C)C)C(=O)N76)[nH]5)cc4)cc3)[nH]1)OCCO2)C(C)C` [Compound 13], for which, in test [2] (vs 5), the “less potent than 5 against gt1a” value was determined as 16 fold.
